Measured values: PMC10702411 (Nature structural & molecular biology, 2023)

How the values were obtained:
[1] = test system: IFNγ stimulated ex vivo differentiated monocyte-derived macrophages; assay: cytokine antibody array, macrophages; format: cell-based, human; details: 10 μM embelin, IFNγ 24 h, supernatants; array in duplicate
[2] = test system: D234A and E239A mutants of BIRC2BIR2; assay: NMR and pulldown, BIRC2BIR2 D234A and E239A mutants; format: binding, human; details: NMR and pulldown (performed twice)
[3] = test system: D320A and E325A mutants of BIRC2BIR3; assay: NMR and pulldown, BIRC2BIR3 D320A and E325A mutants; format: binding, human; details: NMR and pulldown (performed twice)
[4] = molecular target: BIRC2BIR3 (Homo sapiens, UniProt Q13490); assay: X-ray crystal structure of BIRC2BIR3 complex; format: binding; details: Supplementary Fig. 2
Chain of BIRC2BIR3 (Q13490 261-346): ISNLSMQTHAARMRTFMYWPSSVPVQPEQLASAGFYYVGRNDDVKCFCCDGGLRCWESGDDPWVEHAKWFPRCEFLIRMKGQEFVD

[5] = test system: BIRC2 and BIRC3 in HIV-TCM; assay: western blot of BIRC2 and BIRC3, HIV-TCM; format: cell-based, human; details: 100 nM LCL161, 4 h, n = 4
[6] = test system: RIPK1; assay: RIPK1 ubiquitination and Ser166 phosphorylation; format: cell-based, human; details: 100 nM LCL161, 5 min (ubiquitination) or 4 h; n = 4
[7] = test system: HIV-TCM; assay: HIV-1 p24 antigen release; format: cell-based; details: Supplementary Fig. 7c,d
[8] = test system: BIRC2 and BIRC3 in TCM; assay: western blot of BIRC2 and BIRC3, uninfected TCM; format: cell-based, human; details: uninfected cells (TCM), 100 nM LCL161, 4 h; n = 4
[9] = test system: cancer cells; details: cited from earlier work
[10] = test system: HIV-TCM; assay: Cell Death Detection ELISA, HIV-TCM; format: cell-based, human; details: LCL161, 4 h, n = 4
[11] = test system: HIV-TCM; assay: LDH release assay, HIV-TCM; format: cell-based, human; details: LCL161, 4 h, n = 4
[12] = cited from earlier work
[13] = test system: human glioma LN18 cells; assay: MTT survival assay, LN18; format: cell-based; details: LCL161 and/or TNF, 24 h, three independent biological replicates
[14] = test system: mouse embryonic fibroblasts (MEFs); assay: MTT survival assay, MEF; format: cell-based; details: LCL161 and/or TNF, 24 h, three independent biological replicates
[15] = test system: FAS DISC in TCM; assay: FAS DISC coimmunoprecipitation, TCM; format: cell-based, human; details: 100 nM LCL161, 4 h, co-IP, n = 4
[16] = test system: caspase-3 and PARP1 in HIV-TCM; assay: western blot of caspase-3 and PARP1, HIV-TCM; format: cell-based, human; details: 100 nM LCL161, 4 h, n = 4
[17] = test system: HIV-TCM; assay: annexin V / propidium iodide flow cytometry, HIV-TCM; format: cell-based, human; details: LCL161, Supplementary Fig. 8
[18] = test system: TCM; assay: apoptosis / cell death read-outs, uninfected TCM; format: cell-based, human; details: LCL161, 4 h
[19] = test system: BIRC2_3BIR D234A/D320A; assay: pulldown, BIRC2_3BIR D234A/D320A; format: binding, human; details: D234A/D320A concurrently, performed twice

## CCCCCCCCCCCC1=C(O)C(=O)C=C(O)C1=O [embelin]
[1]
  interleukin-6 (IL-6) level: increase of interleukin-6 (IL-6)

## H3T3ph: H3 peptide with phosphorylation of Thr3
[2]
  binding to mutant domain: abrogated binding
[3]
  binding to mutant domain: abrogated binding

## AVPI [SMAC]
[4]
  binding site in overlay of structures: occupy the same binding site of BIRC2BIR3

## CN[C@@H](C)C(=O)N[C@H](C(=O)N1CCC[C@H]1c1nc(C(=O)c2ccc(F)cc2)cs1)C1CCCCC1 [LCL161]
[5]
  degradation of BIRC2 and BIRC3: induced the rapid degradation of BIRC2 and BIRC3
[6]
  RIPK1 deubiquitination, phosphorylation and activation: deubiquitination and Ser166 phosphorylation and thus activation of RIPK1
[7]
  HIV-1 p24 antigen release: not accompanied by an increase in HIV-1 p24 antigen release
[8]
  degradation of BIRC2 and BIRC3: induced the rapid degradation of BIRC2 and BIRC3
[9]; at least two dozen tumor types
  anticancer activity: potent anticancer activity in at least two dozen tumor types
[9]; with cisplatin and vincristine
  sensitization of cancer cells to chemotherapy: sensitizes cancer cells to conventional chemotherapy with cisplatin and vincristine
[10]
  cytoplasmic histone-associated DNA fragments: increase in cytoplasmic histone-associated DNA fragments
[11]
  LDH release: increase in lactate dehydrogenase (LDH) release
[12]; among SMAC mimetic compounds
  antiproliferation and bioavailability properties: one of the most promising antiproliferation and bioavailability properties
[12]
  pharmacological properties: favorable pharmacological properties
  toxicity: minor toxicity
[13]
  sensitization to killing by TNF: sensitized mouse embryonic fibroblasts (MEFs) and human glioma LN18 cells to killing by TNF
[14]
  sensitization to killing by TNF: sensitized mouse embryonic fibroblasts (MEFs) and human glioma LN18 cells to killing by TNF
[15]
  association of FADD, cFLIPS and Ser166 phosphorylated RIPK1 with FAS: did not associate with FAS
[16]
  caspase-3 cleavage: cleavage of caspase-3
[17]
  phosphatidylserine translocation: translocation of phosphatidylserine from the inner to the outer leaflet
  plasma membrane permeabilization: permeabilization of the plasma membrane
[18]
  apoptosis / LDH release in uninfected cells: not in the uninfected cells

## ATPF [caspase-9]
[4]
  binding site in overlay of structures: occupy the same binding site of BIRC2BIR3

## H3: N terminus of H3 (residues 1–22 of H3), histone peptide in pulldowns
[2]
  binding to mutant domain: abrogated binding
[3]
  binding to mutant domain: abrogated binding
[19]
  binding to double mutant of triple BIR: disrupt binding
